Each structure is given as a SMILES string. Values joined by “and” are separate entries in the source; they are usually repeats but may differ in a detail not shown here. Equal values may be shown once.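 1) Cells in 96-well plates. 2) Compound, 48 h, 5 concentrations. 3) Linear interpolation between surrounding doses. 4) Unreached endpoint = highest concentration. GI50 is the concentration that inhibits growth by half. Definition used: TGI = concentration required for complete inhibition of growth.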

The values that follow come from PubChem BioAssay (NCI).

Common to all, as to assay: NCI anticancer screen, dose series, 48 h
The subject of test [1] is SF-295 CNS.
In test [2] the test system is MALME-3M melanoma.
Test [3] has as its system SK-MEL-28 melanoma.
The test system of test [4] is SNB-19 CNS.
For test [5], the system named is COLO 205 colon.
The subject of test [6] is 786-0 renal.
Test [7] deals with MDA-MB-435.
Test [8] concerns CCRF-CEM leukemia.
In test [9] the test system is A498 renal.
Test [10] concerns NCI-H522 lung.

In the case of `CC[C@@]1(O)C(=O)OCc2c1cc1n(c2=O)Cc2cc3c(Cl)c4c(cc3nc2-1)OCO4`, the GI50 in [1] is below 0.001 µM; in [2] it was 87 nM; in test [3], 442 nM and 1180 nM; in test [4], 0.00125 µM; in test [5], 1050 nM; in test [7], 19.3 nM and 22.9 nM. Besides, the figures for the GI50 in test [8] and in test [9] were below 1 nM and 0.00182 µM, respectively. The TGI in test [2] was 31.4 µM; in test [3], above 100 µM; in test [4], 0.26 µM; in test [5] it was above 100 µM; in [6], above 100 µM; in test [7], above 100 µM. Besides, the TGI is above 100 µM in test [8]; 0.309 µM and 1.19 µM in [9]; 7.58 µM and 60.5 µM in [10].
Regarding `O=C1C=CC(=O)c2c1cc1ccccc1c2O`, the TGI in test [1] was 31.6 µM; in [2], 17.2 µM; in test [3], 20 µM; in test [4], 35.9 µM; in test [5] it was 6.15 µM; in test [6], 18.7 µM. Further, the TGI in test [7] came to 19.2 µM; in test [8], 5.91 µM; in [9], 28.8 µM; in test [10], 3.98 µM.
Turning to `CCOC(=O)c1c(C(F)(F)F)n([O-])c2ccc(Cl)cc2[n+]1=O`, the GI50 in test [1] is 1.24 µM; in test [2] it was 1730 nM; in test [3], 1890 nM; in test [4], 6.21 µM; in test [5] it was 1650 nM; in [6], 2110 nM. In addition, the GI50 is 1680 nM in test [7], 1770 nM in test [8], 1.73 µM in [9] and 2110 nM in test [10]. Besides, the TGI in [1] was found to be 2.83 µM; in [2], 3.42 µM; in [3] it was 3.58 µM; in [4], 19.2 µM; in test [5] it was 3.29 µM; in test [6] it was 3.71 µM. The TGI in test [7] worked out at 3.85 µM; in [8] it was 3.99 µM; in test [9], 3.93 µM; in [10], 4.3 µM.
For the compound `Cc1ccc(-c2c3c(N)nc(-c4ccncc4)nc3nc3c2c(C)nn3-c2ccccc2)cc1`, the GI50 in test [1] was above 37.5 µM; in [2], 7730 nM; in test [3], 7690 nM; in test [4], above 37.5 µM; in test [5], 35300 nM; in [6] it was 12400 nM. The GI50 in test [7] was 12600 nM; in test [8] it was 12600 nM; in [9], 5.81 µM; in test [10], above 37500 nM. In addition, the TGI in test [1] is above 37.5 µM; in test [2], 16.2 µM; in [3], above 37.5 µM; in test [4] it was above 37.5 µM; in [5], above 37.5 µM; in test [6], above 37.5 µM. In addition, the TGI in test [7], in test [8], in [9] and in [10] was above 37.5 µM in each case.
For `N#Cc1ccc(N2Cc3cc(Cl)ccc3OC3=C2C(=O)N(Cc2ccc(F)cc2)C3=O)cc1`, the GI50 in [1] was 4.65 µM; in [2] it was 559 nM; in [3] it was 558 nM; in [4], 1.54 µM; in test [5], 1570 nM; in test [6], 578 nM. Further, the GI50 in test [7] was 607 nM; in test [8] it was 229 nM; in [9], 3.26 µM; in [10], 475 nM. Also, the TGI in [1] is 14.5 µM; in [2], 1.13 µM; in test [3], 1.13 µM; in test [4], 9.24 µM; in test [5], 3.65 µM; in test [6], 1.27 µM. The TGI in test [7] turned out to be 1.44 µM; in test [8], 1.09 µM; in test [9], 15.3 µM; in [10] it was 1.01 µM.
As for `CCc1ccc(Oc2nccc(-c3c(-c4ccc(F)cc4)ncn3C3CCNCC3)n2)cc1`, the GI50 in [1] is 5.52 µM; in [2] it was 4620 nM; in [3] it was 4730 nM; in [4] it was 7.84 µM; in test [5], 4240 nM; in [6], 4910 nM. The GI50 in test [7] is 4470 nM; in [8], 6770 nM; in test [9], 3.55 µM; in test [10], 4730 nM. Also, the TGI in [1] was found to be 12.1 µM; in [2] it was 9.13 µM; in [3], 8.44 µM; in test [4], 17.2 µM; in test [5] it was 7.93 µM; in test [6] it was 10.4 µM. Also, the TGI in test [7] stood at 8.77 µM; in test [8] it was 17.8 µM; in test [9], 9.82 µM; in test [10], 8.67 µM.
On to `COc1ccc(Oc2nc(Nc3ccc(N4CCOCC4)cc3)ncc2NC(=O)Nc2cc(OC)cc(OC)c2)cc1`, for which the GI50 in test [1] is 4.19 µM; in [2], 969 nM; in test [3], 2500 nM; in test [4], 4.66 µM; in test [5], 5270 nM; in test [6], 1310 nM. Further, the GI50 in test [7] is 2330 nM; in test [8], above 33300 nM; in test [9], 4.75 µM; in test [10], 3940 nM. Also, the TGI amounted to 12.7 µM in [1]; 3.27 µM in [2]; 9.73 µM in test [3]; 28.8 µM in [4]; 14.7 µM in test [5]; 5.74 µM in test [6]. Besides, the TGI in test [7] is 17.1 µM; in test [8] it was above 33.3 µM; in test [9], 15 µM; in test [10], 21.7 µM.
Take `COC(=O)c1c2c(c(C)[n+]([O-])c1C)C(=O)C=C(NCc1ccc(Br)cc1)C2=O`: the GI50 was 0.242 µM in test [1]; 154 nM in test [2]; 987 nM in test [3]; 1.23 µM in test [4]; 322 nM in [5]; 637 nM in test [6]. Also, the GI50 was 95 nM in test [7], 669 nM in test [8], 0.904 µM in test [9] and 1230 nM in test [10]. The TGI in [1] worked out at 1.32 µM; in test [2] it was 0.389 µM; in test [3] it was 2.72 µM; in [4], 2.48 µM; in [5], 1.17 µM; in test [6] it was 2.23 µM. Further, the TGI in test [7] was 0.243 µM; in test [9] it was 2.3 µM; in test [10] it was 4.11 µM.
